Measurements taken from patent publication US20040019430A1, “Methods and systems for analyzing complex biological systems” (priority 2001, published 2004).
“Also recorded” adds a separate entry of the source.

Experiments:
[1] = test system: Arabidopsis thaliana plants; experiment: SOA1 phenotypic analysis of herbicide-treated Arabidopsis plants (MIC, Tmic, leaf traits); assay type: in vivo; conditions: for Characteristic symptoms (phenotype): herbicide treated Arabidopsis; for Dev. leafCurling / Dev. leafTwisting / Dev. matureLeafAnthocyanins / Dev. matureLeafChlorosis / Dev. matureLeafNecrosis / Dev. newLeafAnthocyanins / Dev. newLeafChlorosis / Dev. newLeafNecrosis / Dev. pointedLeaves: numeric value standardized to mock treated; for Dev. leafWidth: numeric value standardized to the average response for the mock treated tissues; for Symptom Class: three-week-old Arabidopsis plants treated with herbicide, phenotype classes of FIG. 12
Arabidopsis thaliana [2] = experiment: MOA1 biochemical (metabolite) profiling by LC-MS and GC-MS; conditions: for Stress-related (commonly regulated) metabolites: MOA1, 20 min and 1 hr after spraying
Arabidopsis thaliana [3] = experiment: MOA1 phenotypic profiling of Arabidopsis sprayed with unknown and commercial herbicides; assay type: in vivo
[4] = test system: N-starved Arabidopsis plants; conditions: nitrate addition to N-starved Arabidopsis; cited from earlier work

Row | SMILES | Dev. tMic [1] | Characteristic symptoms (phenotype) [1] | Dev. leafCurling [1] | Dev. leafTwisting [1] | Dev. matureLeafAnthocyanins [1] | Dev. matureLeafChlorosis [1] | Dev. matureLeafNecrosis [1] | Dev. newLeafAnthocyanins [1] | Dev. newLeafChlorosis [1] | Dev. newLeafNecrosis [1] | Dev. pointedLeaves [1] | Dev. leafWidth [1] | also measured
1 | O=C(O)c1cc(Oc2ccc(C(F)(F)F)cc2Cl)ccc1[N+](=O)[O-] [Acifluorfen] | 1 | Necrotic leaf flecks | 1 | 0 | 0 | 0 | 1 | 0 | 0 | 3 | 0 | 0 | 
2 | c1cc[n+]2c(c1)-c1cccc[n+]1CC2 [Diquat] | 2 | rapid and widespread leaf necrosis | 2 | 0 | 0 | 1 | 4 | 0 | 1 | 4 | 1 | −2 | Symptom Class [1]: 7
3 | COc1nc(C)nc(NC(=O)NS(=O)(=O)c2ccccc2Cl)n1 [Chlorsulfuron] | 2 | anthocyanin accumulation in the older leaves accompanied by chlorosis of the newly emerging leaves | 1 | 1 | 3 | 2 | 0 | 0 | 2 | 0 | 0 | −1 | 
4 | COC(=O)c1cc(Oc2ccc(Cl)cc2Cl)ccc1[N+](=O)[O-] [Bifenox] | 1 | Necrotic leaf flecks | 1 | 0 | 0 | 0 | 1 | 0 | 0 | 3 | 0 | 0 | 
5 | CSc1nnc(C(C)(C)C)c(=O)n1N [Metribuzin] | 1 | rapid and widespread leaf necrosis | 1 | 0 | 0 | 2 | 4 | 0 | 2 | 4 | 1 | −2 | 
6 | O=C(O)Cn1c(=O)sc2cccc(Cl)c21 [Benazolin] | 2 |  | 2 | 2 | 0 | 0 | 0 | 0 | 0 | 0 | 0 | −2 | 
7 | CN(C)C(=O)Nc1ccc(Cl)c(Cl)c1 [Diuron] | 1 | rapid and widespread leaf necrosis | 1 | 0 | 0 | 2 | 4 | 0 | 2 | 4 | 1 | −2 | Symptom Class [1]: 7
8 | CC(C)N1C(=O)c2ccccc2NS1(=O)=O [Bentazon] | 1 | rapid and widespread leaf necrosis | 2 | 0 | 0 | 2 | 4 | 0 | 2 | 4 | 1 | −2 | 
9 | COc1c(Cl)ccc(Cl)c1C(=O)O [Dicamba] | 2 |  | 2 | 2 | 0 | 2 | 0 | 0 | 0 | 0 | 0 | −2 | 
10 | CC(C)C1(C)N=C(c2ncccc2C(=O)O)NC1=O (stereo not drawn) [Imazapyr] | 2 | anthocyanin accumulation in the older leaves accompanied by chlorosis of the newly emerging leaves | 0 | 0 | 2 | 0 | 0 | 0 | 2 | 0 | 0 | 0 | Stress-related (commonly regulated) metabolites (Arabidopsis thaliana [2]): Only a few, if any, stress-related metabolites were observed
11 | CCc1cccc(C)c1N(C(=O)CCl)C(C)COC (stereo not drawn) [Metolachlor] | 2 |  | 2 | 1 | 0 | 0 | 3 | 0 | 0 | 3 | 1 | −1 | 
12 | CS(=O)(=O)c1cc(C(F)(F)F)ccc1C(=O)c1cnoc1C1CC1 [Isoxaflutole] |  |  |  |  |  |  |  |  |  |  |  |  | Alpha-tocopherol levels (Arabidopsis thaliana [2]; relative to control, early time points): not significantly changed relative to the control; Tyrosine and phenylalanine levels (Arabidopsis thaliana [2]; relative to control, early time points, 1 hr): up-regulated relative to the control; also recorded: began to accumulate relative to the control after one hour
13 | Nc1nc[nH]n1 [Amitrole] | 2 | leaf bleaching and leaf enlargement | −1 | 0 | 0 | 3 | 0 | 0 | 4 | 0 | 0 | 2 | Hierarchical cluster analysis of the eleven phenotypic characteristics / phenotype (Arabidopsis thaliana [3]; Ward's method): exhibited chlorosis and not true bleaching
14 | CCNc1nc(Cl)nc(NC(C)C)n1 [Atrazine] | 1 | rapid and widespread leaf necrosis | 1 | 0 | 0 | 1 | 4 | 0 | 1 | 4 | 1 | −1 | 
15 | O=C(O)COc1ccc(Cl)cc1Cl [2,4-D] | 2 |  | 1 | 2 | 1 | 2 | 0 | 0 | 1 | 0 | 0 | −1 | Symptom Class [1]: 5
16 | CNc1cnn(-c2cccc(C(F)(F)F)c2)c(=O)c1Cl [Norfluazon, norflurazon] |  |  |  |  |  |  |  |  |  |  |  |  | Stress-related (commonly regulated) metabolites (Arabidopsis thaliana [2]): Only a few, if any, stress-related metabolites were observed
17 | CCSC(=O)N(CC(C)C)CC(C)C [Butylate] |  |  |  |  |  |  |  |  |  |  |  |  | Stress-related (commonly regulated) metabolites (Arabidopsis thaliana [2]): neither butylate nor chlorpropham treatment resulted in many changes; Herbicidal phenotype (Arabidopsis thaliana [3]): neither showed a strong herbicidal phenotype
18 | O=[N+]([O-])O [Nitrate, nitrate] |  |  |  |  |  |  |  |  |  |  |  |  | Nitrate Regulation of Glutamate synthetase [4]: ↑; Nitrate Regulation of Glutamine synthetase (2) [4]: ↑; Nitrate Regulation of MADs Box (2) [4]: ↓; Nitrate Regulation of MYB transcription factor [4]: ↑; Nitrate Regulation of Malate Dehydrogenase [4]: ↑; Nitrate Regulation of Nitrate transporter [4]: ↑; Nitrate Regulation of Phosphate transporter [4]: ↑; Nitrate Regulation of Transaldolase [4]: ↑; Nitrate Regulation of Transketolase [4]: ↑
19 | CC(C)OC(=O)Nc1cccc(Cl)c1 [Chloropropham] |  |  |  |  |  |  |  |  |  |  |  |  | Stress-related (commonly regulated) metabolites (Arabidopsis thaliana [2]): neither butylate nor chlorpropham treatment resulted in many changes; Herbicidal phenotype (Arabidopsis thaliana [3]): neither showed a strong herbicidal phenotype
20 | C[n+]1ccc(-c2cc[n+](C)cc2)cc1 [Paraquat] | 2 | rapid and widespread leaf necrosis | 2 | 0 | 0 | 1 | 4 | 0 | 1 | 4 | 1 | −1 | Symptom Class [1]: 7
21 | CCc1cnc(C2=NC(C)(C(C)C)C(=O)N2)c(C(=O)O)c1 (stereo not drawn) [Imazethapyr] | 2 | anthocyanin accumulation in the older leaves accompanied by chlorosis of the newly emerging leaves | 1 | 1 | 3 | 0 | 0 | 0 | 2 | 0 | 0 | 0 | 
